Patent US20110105397A1, “METHOD FOR TREATING HEART FAILURE WITH STRESSCOPIN-LIKE PEPTIDES” (priority 2009, published 2011)
Like-named read-outs stand apart in the source and are kept apart here.

Experiments:
h-CRHR1 = target: T1, h-CRHR1 (Homo sapiens, UniProt P34998); details: h-CRHR1 transfected HEK-293 cells, approximated values from concentration response curves (Hsu et al., 2001); cited from earlier work
T1 sequence (P34998 24-415): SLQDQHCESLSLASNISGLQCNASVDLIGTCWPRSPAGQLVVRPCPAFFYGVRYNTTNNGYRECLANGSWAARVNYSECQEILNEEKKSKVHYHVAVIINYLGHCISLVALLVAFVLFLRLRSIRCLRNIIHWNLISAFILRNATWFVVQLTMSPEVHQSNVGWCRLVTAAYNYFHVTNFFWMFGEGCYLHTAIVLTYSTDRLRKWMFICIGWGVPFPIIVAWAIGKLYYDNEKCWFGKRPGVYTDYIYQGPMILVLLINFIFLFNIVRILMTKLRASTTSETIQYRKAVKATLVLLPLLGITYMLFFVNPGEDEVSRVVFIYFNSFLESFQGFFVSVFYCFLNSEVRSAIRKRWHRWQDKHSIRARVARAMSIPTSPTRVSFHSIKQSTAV

[1] = Human pharmacokinetics, healthy subjects, 7.5-hour continuous ascending dose IV infusion; format: in vivo; details: for half-life / clearance / Cmax / Tmax / AUC(0-inf): human, in vivo
Description: In healthy subjects following a 7.5-hour continuous ascending dose IV infusion of h-SCP (SEQ ID NO:1) noncompartmental pharmacokinetic analyses were performed to determine plasma concentrations of h-SCP (SEQ ID NO:1). Plasma h-SCP (SEQ ID NO:1) reached the steady state shortly after initiating the IV infusion (FIG. 16A). […] Within 30 minutes, plasma h-SCP (SEQ ID NO:1) was reduced to ≦20% of the h-SCP (SEQ ID NO:1) level at the end of infusion. […] However, the additional compartment's contribution to the overall exposure and accumulation of h-SCP (SEQ ID NO:1) is likely marginal as indicated by the effective half-lives.

[2] = Nonclinical pharmacokinetics in dogs; design: species or system dog; details: in vivo; for Cmax: read-out: Cmax
Description: (§1) A sandwich immunoassay was developed using an affinity purified goat polyclonal antibody, specific to h-SCP that was pre-coated onto a microplate with integrated electrodes. h-SCP molecules present in the sample will bind to the capture polyclonal antibody coated on the plate. After washing away any unbound substances, a sulfo-tagged mouse monoclonal anti-h-SCP antibody was added. This conjugated antibody will bind to the h-SCP molecules captured on the microplate and the quantity of analyte was determined by electrochemiluminescence. The amount of signal generated is directly proportional to the h-SCP concentration in the sample or standard. The standard curve range is 3.125-1600 pg/mL with a quantifiable range from 10-800 pg/mL. A sample volume of 25 μL (in duplicate) is required for this assay. This immunoassay is specific for human and dog stresscopin and human urocortin III (h-UCN3). […] After completion of the analysis, based on a comparison of reference standards between the ELISA and HPLC method, a correction factor of 1.57 was applied to all bioanalytical data.
(§2) The nonclinical pharmacokinetics of h-SCP (SEQ ID NO:1) and pegylated stresscopin-like peptides were studied in rats, dogs, and cynomolgus monkeys (cyno). Nonclinical pharmacokinetic studies focused on characterization of IV infusion at pharmacologically relevant dose levels, supplemented with IV and SC bolus and toxicokinetic analysis.

[3] = system: Langendorff perfused rabbit heart; test: Retrograde-perfused Langendorff rabbit heart assay; details: bolus into the perfusion block
Description: The effect of h-SCP (SEQ ID NO:1) on heart rate (HR), left ventricular (LV) contraction, and vascular tone was assessed in a retrograde-perfused Langendorff rabbit heart assay.

[4] = Nonclinical pharmacokinetics in cynomolgus monkeys; details: cynomolgus monkey, in vivo
Description: as §1, §2

[5] = healthy subjects, infusion rate 9/18/36 ng/kg/min, mean, N = 5
[6] = healthy subjects, infusion rate 18/54/72 ng/kg/min, mean, N = 3
[7] = healthy subjects, infusion rate 36/72/144 ng/kg/min, N = 1
[8] = healthy subjects, infusion rate 54/72/108 ng/kg/min, mean, N = 2
[9] = male, dog IV infusion 3 hours, M, 3.33 ng/kg/min
[10] = male, dog IV infusion 3 hours, M, 8.33 ng/kg/min
[11] = male, dog IV infusion 3 hours, M, 16.7 ng/kg/min
[12] = male, dog IV infusion 3 hours, M, 33.3 ng/kg/min
[13] = female, cyno IV infusion 3 hours, F, 16.7 ng/kg/min
[14] = female, cyno IV infusion 3 hours, F, 33.3 ng/kg/min
[15] = female, cyno IV infusion 3 hours, F, 100 ng/kg/min
[16] = male, cyno IV infusion 3 hours, M, 16.7 ng/kg/min
[17] = male, cyno IV infusion 3 hours, M, 33.3 ng/kg/min
[18] = male, cyno IV infusion 3 hours, M, 100 ng/kg/min

H-HPGSRIVLSLDVPIGLLQILLEQARARAAREQATTNARILARV-NH2 [SEQ ID NO: 117, HPGSRIVLSLDVPIGLLQILLEQARARAAREQATTNARILARV-NH2, reference compound]
Published pA50 (h-CRHR1): >7^3

H-TKFTLSLDVPTNIMNLLFNIAKAKNLRAQAAANAHLMAQI-NH2 [SEQ ID NO: 1, TKFTLSLDVPTNIMNLLFNIAKAKNLRAQAAANAHLMAQI-NH2]
human equivalent dose to achieve Cpss of 620 pg/mL ([1]; dose = CL × Cpss / weight, 70 kg): 4.4 ng/kg/min
expected steady-state plasma concentration (Cpss) ([1]; human starting dose of 0.1 ng/kg/min, pharmacokinetic-based approach): 8.6 pg/mL
half-life ([1]; healthy subjects, across dose groups, read-out: Mean effective half-life): 1.54 to 14.2 h
clearance ([1]; healthy subjects, across dose groups, read-out: Mean systemic clearance): 4.5 to 7 mL/min/kg
half-life ([1]; healthy subjects, across dose groups, read-out: Mean terminal half-life): 2.13 to 28.5 h
Cmax ([1]; healthy subjects, infusion rate 0.1/0.3/1 ng/kg/min, mean, N = 5): 0.248 ng/mL
Tmax ([1]; healthy subjects, infusion rate 0.1/0.3/1 ng/kg/min, median, N = 5): 7.47 h
AUC(0-inf) ([1]; healthy subjects, infusion rate 1/3/9 ng/kg/min, mean, N = 4): 7.41 ng·h/mL
clearance ([1]; healthy subjects, infusion rate 1/3/9 ng/kg/min, mean, N = 4, read-out: CL (converted)): 4.67 mL/min/kg
Tmax ([1]; healthy subjects, infusion rate 1/3/9 ng/kg/min, median, N = 5): 7 h
AUC(0-inf) [1, 5]: 28.9 ng·h/mL
Cmax [1, 5]: 7.26 ng/mL
clearance ([1]; healthy subjects, infusion rate 9/18/36 ng/kg/min, mean, N = 5, read-out: CL (converted)): 5.5 mL/min/kg
Tmax ([1]; healthy subjects, infusion rate 9/18/36 ng/kg/min, median, N = 5): 7 h
AUC(0-inf) ([1]; healthy subjects, infusion rate 18/36/72 ng/kg/min, N = 1): 68.7 ng·h/mL
clearance ([1]; healthy subjects, infusion rate 18/36/72 ng/kg/min, N = 1, read-out: CL (converted)): 4.67 mL/min/kg
Cmax ([1]; healthy subjects, infusion rate 18/36/72 ng/kg/min, mean, N = 2): 14.1 ng/mL
Tmax ([1]; healthy subjects, infusion rate 18/36/72 ng/kg/min, median, N = 2): 6.46 h
AUC(0-inf) [1, 6]: 55.9 ng·h/mL
Cmax [1, 6]: 9.01 ng/mL
clearance ([1]; healthy subjects, infusion rate 18/54/72 ng/kg/min, mean, N = 3, read-out: CL (converted)): 6.83 mL/min/kg
Tmax ([1]; healthy subjects, infusion rate 18/54/72 ng/kg/min, median, N = 3): 5.5 h
AUC(0-inf) [1, 7]: 138 ng·h/mL
Cmax [1, 7]: 29.1 ng/mL
Tmax [1, 7]: 7.42 h
clearance ([1]; healthy subjects, infusion rate 36/72/144 ng/kg/min, N = 1, read-out: CL (converted)): 4.5 mL/min/kg
AUC(0-inf) [1, 8]: 95.5 ng·h/mL
Cmax [1, 8]: 14.6 ng/mL
clearance ([1]; healthy subjects, infusion rate 54/72/108 ng/kg/min, mean, N = 2, read-out: CL (converted)): 7 mL/min/kg
Tmax ([1]; healthy subjects, infusion rate 54/72/108 ng/kg/min, median, N = 2): 6.99 h
clearance ([1]; iv, healthy humans, intravenous infusion, for a 70-kg person, read-out: clearance (CL) (converted)): ~500 mL/min
half-life ([2]; dog, dogs, two-compartment analysis, read-out: alpha-phase half-life (t1/2 alpha)): 0.167 to 0.333 h
half-life ([2]; dog, dogs, read-out: terminal phase half-life (converted)): ~1 h
time to apparent steady-state plasma concentration after initiation of infusion ([2]; dog, iv): ≤ 1 h
clearance ([2]; dog, dogs, 3.3 to 33.3 ng/kg/min, read-out: plasma clearance): ~4 mL/min/kg
half-life ([2]; male, dog, iv, 33.3 ng/kg/min, dog IV infusion 3 hours, M, 33.3 ng/kg/min, read-out: t1/2 alpha): 0.228 h
half-life ([2]; male, dog, iv, 33.3 ng/kg/min, dog IV infusion 3 hours, M, 33.3 ng/kg/min, read-out: t1/2 terminal): 1.09 h
Vd ([2]; male, dog, iv, Vss): 0.216 L/kg
half-life ([2]; male, dog, iv, t1/2 alpha): 0.265 h
half-life ([2]; male, dog, iv, t1/2 terminal): 0.993 h
AUC(0-inf) [2, 9]: 2.34 ng·h/mL
clearance ([2]; male, dog IV infusion 3 hours, M, 3.33 ng/kg/min, read-out: CL): 4.28 mL/min/kg
Cmax [2, 9]: 0.814 ng/mL
AUC(0-inf) [2, 10]: 6.46 ng·h/mL
clearance ([2]; male, dog IV infusion 3 hours, M, 8.33 ng/kg/min, read-out: CL): 3.87 mL/min/kg
Cmax [2, 10]: 2.38 ng/mL
AUC(0-inf) [2, 11]: 12.8 ng·h/mL
clearance ([2]; male, dog IV infusion 3 hours, M, 16.7 ng/kg/min, read-out: CL): 3.99 mL/min/kg
Cmax [2, 11]: 5.05 ng/mL
AUC(0-inf) [2, 12]: 26.4 ng·h/mL
clearance ([2]; male, dog IV infusion 3 hours, M, 33.3 ng/kg/min, read-out: CL): 3.95 mL/min/kg
Cmax [2, 12]: 10 ng/mL
Vd ([2]; male, dog IV infusion 3 hours, M, 33.3 ng/kg/min, read-out: Vss): 0.161 L/kg
EC50 ([3]; read-out: concentration for 50% response, decrease in coronary perfusion pressure (CPP)): 46 nM
EC50 ([3]; read-out: concentration for 50% response, increase in heart rate): 52 nM
EC50 ([3]; read-out: concentration for 50% response, increase in left ventricular developed pressure (dP/dtmax)): 9.9 nM
time to apparent steady-state plasma concentration after initiation of infusion ([4]; iv): ≤ 1 h
half-life ([4]; monkeys, two-compartment analysis, read-out: alpha-phase half-life (t1/2 alpha)): < 0.0833 h
clearance ([4]; cynomolgus monkeys, 16.7 to 100 ng/kg/min, read-out: clearance values (CL)): 30 to 40 mL/min/kg
Vss ([4]; female, iv): 0.921 L/kg
half-life ([4]; female, iv, 33.3 ng/kg/min, cyno IV infusion 3 hours, F, 33.3 ng/kg/min, read-out: t1/2 alpha): 0.0667 h
half-life ([4]; female, iv, 33.3 ng/kg/min, cyno IV infusion 3 hours, F, 33.3 ng/kg/min, read-out: t1/2 terminal): 0.247 h
Vd ([4]; female, iv, Vss): 0.848 L/kg
half-life ([4]; female, iv, t1/2 alpha): 0.0517 h
AUC(0-inf) [4, 13]: 1.31 ng·h/mL
Cmax [4, 13]: 0.613 ng/mL
clearance ([4]; female, cyno IV infusion 3 hours, F, 16.7 ng/kg/min, read-out: CL): 39.7 mL/min/kg
AUC(0-inf) [4, 14]: 2.34 ng·h/mL
Cmax [4, 14]: 0.958 ng/mL
clearance ([4]; female, cyno IV infusion 3 hours, F, 33.3 ng/kg/min, read-out: CL): 42.9 mL/min/kg
Vd ([4]; female, cyno IV infusion 3 hours, F, 33.3 ng/kg/min, read-out: Vss): 0.931 L/kg
AUC(0-inf) [4, 15]: 7.67 ng·h/mL
Cmax [4, 15]: 3.16 ng/mL
clearance ([4]; female, cyno IV infusion 3 hours, F, 100 ng/kg/min, read-out: CL): 39.1 mL/min/kg
Vss ([4]; male, iv): 0.899 L/kg
half-life ([4]; male, iv, 33.3 ng/kg/min, cyno IV infusion 3 hours, M, 33.3 ng/kg/min, read-out: t1/2 alpha): 0.0617 h
half-life ([4]; male, iv, 33.3 ng/kg/min, cyno IV infusion 3 hours, M, 33.3 ng/kg/min, read-out: t1/2 terminal): 0.433 h
Vd ([4]; male, iv, Vss): 0.788 L/kg
half-life ([4]; male, iv, t1/2 alpha): 0.0483 h
AUC(0-inf) [4, 16]: 1.73 ng·h/mL
Cmax [4, 16]: 0.873 ng/mL
clearance ([4]; male, cyno IV infusion 3 hours, M, 16.7 ng/kg/min, read-out: CL): 30.2 mL/min/kg
AUC(0-inf) [4, 17]: 3.47 ng·h/mL
Cmax [4, 17]: 1.48 ng/mL
clearance ([4]; male, cyno IV infusion 3 hours, M, 33.3 ng/kg/min, read-out: CL): 29.2 mL/min/kg
Vd ([4]; male, cyno IV infusion 3 hours, M, 33.3 ng/kg/min, read-out: Vss): 0.611 L/kg
AUC(0-inf) [4, 18]: 9.79 ng·h/mL
Cmax [4, 18]: 4.45 ng/mL
clearance ([4]; male, cyno IV infusion 3 hours, M, 100 ng/kg/min, read-out: CL): 30.7 mL/min/kg
